Where two headings read alike, the source gives them in different places. Where only a bound is given, the exact number is not on record here.

The values below come from paper PMC6017655, “In Silico and in Vitro-Guided Identification of Inhibitors of Alkylquinolone-Dependent Quorum Sensing in Pseudomonas aeruginosa” (Molecules : A Journal of Synthetic Chemistry and Natural …, 2018).

The nature of data set [1]: Hepatic microsomal stability, rat. Type of data set: in vitro ADME. The note with it: liver microsomes, pH 7.4, 0.5 mg/mL protein, NADPH, 37 °C; for microsomal CLint at 1 µM: read-out: Microsomal Stability Rat Clint (intrinsic clearance); for half-life at 1 µM: read-out: Microsomal Stability Rat t1/2. The method, then: (§1) Dilutions of a 1 mM test compound DMSO stock solution were prepared in buffer (typically 0.01 M phosphate buffered saline (pH 7.4) so that the final DMSO concentration was 0.1% v/v and the final test compound concentration tested was 1 µM. Following addition of protein (0.5 mg/mL final) and NADPH, the samples were pre-incubated for 10 min prior to the start of the incubation by the addition of test compound. The test compounds were then incubated (n = 2; 1 µM final concentration) at 37 °C with tissue microsomes. Aliquots were sampled at several time points and mixed with acetonitrile (containing internal standard) to terminate the reaction and precipitate the proteins. All the samples were mixed, centrifuged and the supernatants analysed by UPLC-MS/MS. The intrinsic clearance (Clint) and half-life (t 1/2) values were determined from the slope of the parent depletion curve. Control compounds for low, moderate and high intrinsic clearance, respectively, for both human and rat microsomes, were included.

The test system of another data set is PAO1-L. As to the kind of experiment: Bacterial growth (optical density) in reporter assay, PAO1-L. Type of data set: cell-based, Pseudomonas aeruginosa. The following applies: compound vs DMSO control. The method, then: (§2) To determine the ability of the quinolines to inhibit PqsR functionality, the P. aeruginosa biosensor strains, PAO1-L and PA14, incorporating a chromosomal mCTX::PpqsA-lux transcriptional fusion, were used. These report on the activation of the pqsA promoter, regulated by PqsR [25]. PAO1-L and PA14 were chosen because they are genetically amenable and belong to the two major P. aeruginosa genomic groups. The quinolone compounds were incubated with the corresponding strain, and luminescence and optical density readings were recorded to monitor the effect of the quinolines on PqsR activity and bacterial growth, respectively. The compounds were screened at 10 µM concentration, and the activity was compared to a control of DMSO (0.1%) (Figure 3a). To be considered a hit, a threshold of at least 50% inhibition of the test compound, relative to the negative control had to be reached, without affecting bacterial growth. […] Concentration-response experiments were then carried out to determine the IC50 values (Figure 3b,c), which are summarised in Table 1.
(§3) Figure 3 Whole bacterial cell-based P. aeruginosa compound screen for both PqsR and growth inhibition (a) Activity against PA14 (green) and PAO1-L (purple) PpqsA-lux reporter strains at 10 µM test compound; (b) and (c) Dose-response curves for active compounds against PA14 (b) and PAO1-L (c); (d) and (e) growth curves for PA14 (d) and PAO1-L (e) in the presence of compound or DMSO control.

The test system of data set [2] is PqsR (pqsA promoter, PAO1-L mCTX::PpqsA-lux). As to the kind of experiment: Whole cell biosensor reporter assay, PAO1-L mCTX::PpqsA-lux. The note with it: for IC50: Mean ± SD, n = 3; for activity at 10 µM: PAO1, read-out: PAO1-L Remaining Activity %; for PqsR inhibitory activity (in words), PAO1-L: screen at 10 µM / dose-response. Type of data set: cell-based, Pseudomonas aeruginosa. The method, then:
as §2
(§4) Strains PA14 mCTX::PpqsA-lux and PAO1-L mCTX::PpqsA-lux were constructed using plasmid mini-CTX::PpqsA-lux, as previously described, and the assay was performed according to a published protocol. For screening, the compounds were tested at a concentration of 10 µM, which was prepared from a 10 mM stock, in DMSO.
(In general: In a reporter assay the amount or activity of a reporter protein is the signal.)

A short description of the next data set: Plasma stability, rat. The following applies: 37 °C, up to 2 h, read-out: Plasma Stability Rat t1/2. In kind it is in vitro ADME. The method, then:
(§5) Dilutions of a 10 mM test compound DMSO stock solution were prepared so that the final DMSO concentration was 1% v/v and the final test compound concentration tested was 1 µM. Following the addition of the test compound to plasma, the samples were pre-incubated for 10 min prior to the start of the incubation by the addition of the test compound. The test compound was incubated (n = 2; 1 µM final concentration) at 37 °C with plasma for up to 2 h. Aliquots were sampled at several time points and mixed with acetonitrile (containing internal standard) to terminate the reaction and precipitate the proteins. All the samples were mixed, centrifuged and the supernatants analysed by UPLC-MSMS. Parent disappearance and half-life (t 1/2) values were determined from the slope of the parent depletion curve. Control compounds (imidapril, enalapril, tenofovir and/or propantheline), were respectively included.

Another data set can be described thus: Plasma stability, human. In kind it is in vitro ADME. The following applies: 37 °C; for half-life at 1 µM: human, plasma, up to 2 h, read-out: Plasma Stability Human t 1/2. The method, then:
as §5

For data set [3], the system named is PqsR (pqsA promoter, PA14 mCTX::PpqsA-lux). In words: Whole cell biosensor reporter assay, PA14 mCTX::PpqsA-lux. Type of data set: cell-based, Pseudomonas aeruginosa. The note with it: for IC50: Mean ± SD, n = 3; for activity at 10 µM: PA14, read-out: PA14 Remaining Activity %; for PqsR inhibitory activity (in words), PA14: screen at 10 µM. The method, then:
as §2, §4

Data set [4] in a line: Hepatic microsomal stability, human. In kind it is in vitro ADME. The following applies: liver microsomes, pH 7.4, 0.5 mg/mL protein, NADPH, 37 °C; for half-life at 1 µM: read-out: Microsomal Stability Human t1/2. The method, then:
as §1

A further data set relates to PA14. As to the kind of experiment: Bacterial growth (optical density) in reporter assay, PA14. Type of data set: cell-based, Pseudomonas aeruginosa. The note with it: compound vs DMSO control. How it is done:
as §2, §3

For a further data set, the system named is AQ production in PA14. In words: Alkylquinolone (HHQ, PQS, HQNO) production by LC-MS/MS, PA14. In kind it is cell-based, Pseudomonas aeruginosa. The following applies: 3x IC50, 16 h, culture supernatant. How it is done:
(§6) HQNO, can protect Staphylococcus aureus from vancomycin [31] and contributes to the environmental competitiveness of P. aeruginosa, through its activity as a potent inhibitor of the cytochrome bc1 complex. […] LC-MS/MS was used to quantify the major AQs HHQ, PQS and HQNO after incubation of the P. aeruginosa strains with the hit compounds, for 16 h. The assay was performed using both PAO1-L and PA14 strains which were treated with PqsR antagonists at concentrations three-fold higher than their IC50 values. The results obtained depended on the inhibitor and strain tested (Figure 5).
(§7) For each test sample, 100 µL of sterile filtered supernatant (the same preparation as for pyocyanin) was spiked with 10 µL of an internal standard solution (10 µM d4-PQS in MeOH), and diluted with water, to a total volume of 500 µL. Samples were then extracted three times with an 0.5 mL aliquot of ethyl acetate, vortex mixing the aqueous/organic mix for 2 min, then removing the organic phase once the layers had successfully partitioned. For each sample, the combined organic extracts were dried under vacuum and re-dissolved in 100 µL MeOH prior to analysis. For the LC-MS/MS analysis of supernatant extracts, the chromatography was achieved using a Shimadzu series 10AD VP LC system (Columbia, MD, USA). The LC column, maintained at 40 °C, was a Phenomenex Gemini C18 (3.0 µm, 100 × 3.0 mm) (Macclesfield, Cheshire, UK) with an appropriate guard column. Mobile phase A was 0.1% (v/v) formic acid in water containing 2 mM 2-picolinic acid, and mobile phase B 0.1% (v/v) formic acid in methanol. The flow rate throughout the chromatographic separation was 450 µL/min. After an injection of a 2 µL/sample, a binary gradient, beginning initially at 30% B, increased linearly to 99% B over 5 min. The composition remained at 99% B for 3 min, decreased to 30% B over 1 min, and stayed at this composition for 4 min, to allow for column equilibration. […] Where chromatographic peaks for HHQ, HQNO and PQS were detected, a peak area was determined, and analyte peak area/internal standard peak area calculated.

The test system of the next data set is AQ production in PAO1-L. In words: Alkylquinolone (HHQ, PQS, HQNO) production by LC-MS/MS, PAO1-L. In kind it is cell-based, Pseudomonas aeruginosa. The note with it: 3x IC50, 16 h, culture supernatant. How it is done: as §6, §7
The mark [5] stands for this setting: Pseudomonas aeruginosa, PAO1, read-out: IC50 PAO1-L, PpqsA-lux reporter.
[6] abbreviates: read-out: IC50 PAO1-L, PpqsA-lux reporter.
Where [7] appears, read: Pseudomonas aeruginosa, PA14, read-out: IC50 PA14, PpqsA-lux reporter.

With `CC(=O)N1N=C(c2ccccc2)CC1c1cccc(Nc2ccnc3cc(C(F)(F)F)ccc23)c1` (stereo not shown) [IIi], the figures for the microsomal CLint at 1 µM in data set [1] and in data set [4] were 65.7 µL/min/mg and 72.9 µL/min/mg, respectively. Further, the half-life at 1 µM in [1] is 21.1 min; in the data set “Plasma stability, rat”, above 240 min; in “Plasma stability, human” it was 157 min; in data set [4], 19 min. The “Effect on bacterial growth, PAO1-L” value in the data set on PAO1-L is listed as “without interfering with bacterial growth”. The IC50 (commonly the concentration that inhibits the measured activity by half) in data set [2] (setting [5]) was found to be 5 µM; in data set [2] (setting [6]) it was 5.14 ± 0.6 µM; in [3] (setting [7]), 5 µM; in [3] (read-out: IC50 PA14, PpqsA-lux reporter), 4.9 ± 0.3 µM. Moreover, the activity at 10 µM was found to be 26.1 ± 0.99% in data set [2] (Pseudomonas aeruginosa) and 16.8 ± 1.01% in data set [3] (Pseudomonas aeruginosa). Further, the “PqsR inhibitory activity (in words), PAO1-L” value in data set [2] is given as “strong PqsR inhibitory activity”. In addition, the “Plasma stability (in words), human plasma” value in “Plasma stability, human” (1 µM) is reported as “greatest plasma stability”. For the same compound, the “PqsR inhibitory activity (in words), PA14” value in data set [3] is “strong PqsR inhibitory activity”. Moreover, in the data set with PA14, the “Effect on bacterial growth, PA14” value is reported as “without interfering with bacterial growth”.

In the case of `O=CN1N=C(c2ccccc2)CC1c1cccc(Nc2ccnc3cc(C(F)(F)F)ccc23)c1` (stereo not shown) [Ii], the “Inhibition of AQ production (in words), PA14” value with AQ production in PA14 was “not observed”. In addition, the microsomal CLint (usually a measure of how fast metabolising enzymes remove a compound, apart from limits set by blood flow) at 1 µM in data set [1] was determined as 54.1 µL/min/mg; in [4], 80.7 µL/min/mg. For the same compound, the half-life at 1 µM in data set [1] was 25.7 min; in “Plasma stability, rat”, above 240 min; in “Plasma stability, human”, 69.1 min; in data set [4] it was 17.2 min. Moreover, in the data set on PAO1-L, the “Effect on bacterial growth, PAO1-L” value is listed as “without interfering with bacterial growth”. For the same compound, the “Inhibition of AQ production (in words), PAO1-L” value with AQ production in PAO1-L is on record as “greatest inhibition”. Further, the IC50 in data set [2] (setting [5]) came to 5 µM; in data set [2] (setting [6]), 5.1 ± 0.32 µM; in data set [3] (setting [7]) it was 5 ± 0.82 µM. Further, the figures for the activity at 10 µM in data set [2] (Pseudomonas aeruginosa) and in data set [3] (Pseudomonas aeruginosa) were 15.6 ± 2.53% and 16.6 ± 1.3%, respectively. Besides, in data set [2], the “PqsR inhibitory activity (in words), PAO1-L” value was “strong PqsR inhibitory activity”. The “PqsR inhibitory activity (in words), PA14” value in [3] is given as “strong PqsR inhibitory activity”. The “Effect on bacterial growth, PA14” value with PA14 is on record as “without interfering with bacterial growth”.
